Experimental data taken from the NIST ThermoML archive (doi:10.1016/j.jct.2017.08.004).

Assay: molar heat capacity at constant pressure
Details: 101.33 kPa

OC[C@@H](O)[C@@H](O)CO [meso-1,2,3,4-butanetetrol]
molar heat capacity at constant pressure [J/K/mol]
Details | Small sample (50 mg) DSC | relaxation calorimetry
264.15 K, Crystal | 146.16 | –
265.15 K, Crystal | 146.7 | –
266.15 K, Crystal | 147.21 | –
267.15 K, Crystal | 147.61 | –
268.15 K, Crystal | 148.1 | –
269.15 K, Crystal | 148.57 | –
270 K, Crystal | – | 150.4
270.15 K, Crystal | 149.15 | –
271.15 K, Crystal | 149.59 | –
272.15 K, Crystal | 150.19 | –
272.18 K, Crystal | – | 151.4
273.15 K, Crystal | 150.91 | 152
274.15 K, Crystal | 151.33 | –
275.15 K, Crystal | 151.84 | –
276.15 K, Crystal | 152.44 | –
277.15 K, Crystal | 152.94 | –
278.15 K, Crystal | 153.58 | –
279.15 K, Crystal | 154.21 | –
280 K, Crystal | – | 155.49
280.15 K, Crystal | 154.62 | –
281.15 K, Crystal | 155.17 | –
282.15 K, Crystal | 155.77 | –
282.18 K, Crystal | – | 157.05
283.15 K, Crystal | 156.24 | –
284.15 K, Crystal | 156.55 | –
285.15 K, Crystal | 157.21 | –
286.15 K, Crystal | 157.62 | –
287.15 K, Crystal | 158.1 | –
288.15 K, Crystal | 158.65 | –
289.15 K, Crystal | 159.25 | –
290 K, Crystal | – | 160.61
290.15 K, Crystal | 159.93 | –
291.15 K, Crystal | 160.48 | –
292.15 K, Crystal | 161.05 | –
292.3 K, Crystal | – | 161.64
293.15 K, Crystal | 161.72 | –
294.15 K, Crystal | 162.21 | –
295.15 K, Crystal | 162.81 | –
296.15 K, Crystal | 163.64 | –
297.15 K, Crystal | 164.09 | –
298.15 K, Crystal | 164.59 | 164.8
299.15 K, Crystal | 165.2 | –
300 K, Crystal | – | 165.76
300.15 K, Crystal | 165.82 | –
301.15 K, Crystal | 166.37 | –
302.15 K, Crystal | 166.97 | –
302.36 K, Crystal | – | 167.01
303.15 K, Crystal | 167.71 | –
304.15 K, Crystal | 168.28 | –
305 K, Crystal | 169.01 | –
305.15 K, Crystal | 169.01 | –
306.15 K, Crystal | 169.71 | –
307.15 K, Crystal | 170.39 | –
308.15 K, Crystal | 171.17 | –
309.15 K, Crystal | 171.87 | –
310 K, Crystal | 172.33 | –
310.15 K, Crystal | 172.47 | –
311.15 K, Crystal | 173.14 | –
312.15 K, Crystal | 173.77 | –
313.15 K, Crystal | 174.6 | –
314.15 K, Crystal | 175.09 | –
315 K, Crystal | 175.5 | –
315.15 K, Crystal | 175.58 | –
316.15 K, Crystal | 176.2 | –
317.15 K, Crystal | 176.88 | –
318.15 K, Crystal | 177.32 | –
319.15 K, Crystal | 177.89 | –
320 K, Crystal | 178.54 | –
320.15 K, Crystal | 178.54 | –
321.15 K, Crystal | 179.14 | –
322.15 K, Crystal | 179.7 | –
323.15 K, Crystal | 180.24 | –
324.15 K, Crystal | 180.85 | –
325 K, Crystal | 181.48 | –
325.15 K, Crystal | 181.48 | –
326.15 K, Crystal | 181.97 | –
327.15 K, Crystal | 182.72 | –
328.15 K, Crystal | 183.34 | –
329.15 K, Crystal | 183.85 | –
330 K, Crystal | 184.34 | –
330.15 K, Crystal | 184.59 | –
331.15 K, Crystal | 185.18 | –
332.15 K, Crystal | 185.74 | –
333.15 K, Crystal | 186.31 | –
334.15 K, Crystal | 186.85 | –
335 K, Crystal | 187.15 | –
335.15 K, Crystal | 187.33 | –
336.15 K, Crystal | 187.85 | –
337.15 K, Crystal | 188.31 | –
338.15 K, Crystal | 188.9 | –
339.15 K, Crystal | 189.49 | –
340 K, Crystal | 189.91 | –
340.15 K, Crystal | 189.94 | –
341.15 K, Crystal | 190.43 | –
342.15 K, Crystal | 191.01 | –
343.15 K, Crystal | 191.56 | –
344.15 K, Crystal | 192.16 | –
345 K, Crystal | 192.66 | –
345.15 K, Crystal | 192.67 | –
346.15 K, Crystal | 193.32 | –
347.15 K, Crystal | 193.86 | –
348.15 K, Crystal | 194.17 | –
349.15 K, Crystal | 194.83 | –
350 K, Crystal | 195.43 | –
350.15 K, Crystal | 195.3 | –
351.15 K, Crystal | 195.72 | –
352.15 K, Crystal | 196.34 | –
353.15 K, Crystal | 197.73 | –
354.15 K, Crystal | 198.08 | –
355 K, Crystal | 198.22 | –
355.15 K, Crystal | 198.55 | –
356.15 K, Crystal | 199.02 | –
357.15 K, Crystal | 199.53 | –
358.15 K, Crystal | 200.16 | –
359.15 K, Crystal | 200.7 | –
360 K, Crystal | 201.07 | –
360.15 K, Crystal | 201.23 | –
361.15 K, Crystal | 201.82 | –
362.15 K, Crystal | 202.33 | –
363.15 K, Crystal | 202.72 | –
364.15 K, Crystal | 203.4 | –
365 K, Crystal | 203.99 | –
365.15 K, Crystal | 203.96 | –
366.15 K, Crystal | 204.56 | –
367.15 K, Crystal | 205.27 | –
368.15 K, Crystal | 205.84 | –
369.15 K, Crystal | 206.45 | –
370 K, Crystal | 207.02 | –
370.15 K, Crystal | 207.1 | –
371.15 K, Crystal | 207.59 | –
372.15 K, Crystal | 208.24 | –
373.15 K, Crystal | 208.9 | –
374.15 K, Crystal | 209.47 | –
375 K, Crystal | 210.16 | –
375.15 K, Crystal | 210.03 | –
412.05 K, Liquid | 355.49 | –
412.15 K, Liquid | 355.53 | –
412.25 K, Liquid | 355.65 | –
412.35 K, Liquid | 355.53 | –
412.45 K, Liquid | 355.34 | –
412.55 K, Liquid | 355.36 | –
412.65 K, Liquid | 355.43 | –
412.75 K, Liquid | 355.39 | –
412.85 K, Liquid | 355.48 | –
412.95 K, Liquid | 355.36 | –
413.05 K, Liquid | 355.34 | –
413.15 K, Liquid | 355.22 | –
414.15 K, Liquid | 354.92 | –
415 K, Liquid | 354.91 | –
415.15 K, Liquid | 354.76 | –
416.15 K, Liquid | 354.79 | –
417.15 K, Liquid | 354.7 | –
418.15 K, Liquid | 354.67 | –
419.15 K, Liquid | 354.7 | –
420 K, Liquid | 354.96 | –
420.15 K, Liquid | 354.81 | –
421.15 K, Liquid | 354.98 | –
422.15 K, Liquid | 354.99 | –
423.15 K, Liquid | 354.99 | –
424.15 K, Liquid | 354.94 | –
425 K, Liquid | 355.01 | –
425.15 K, Liquid | 354.94 | –
426.15 K, Liquid | 354.95 | –
427.15 K, Liquid | 355.23 | –
428.15 K, Liquid | 355.21 | –
429.15 K, Liquid | 355.15 | –
430 K, Liquid | 355.06 | –
430.15 K, Liquid | 355.18 | –
431.15 K, Liquid | 355.17 | –
432.15 K, Liquid | 355.17 | –
433.15 K, Liquid | 355 | –
434.15 K, Liquid | 354.85 | –
435 K, Liquid | 355.11 | –
435.15 K, Liquid | 355.19 | –
